Key:
Format in all cases: in vivo, beagle dogs
[1] = system: B. burgdorferi outer surface protein OspF; assay: Study B: fluorescent-bead-based multiplex assay, antibodies against OspF; settings: for Multiplex Assay OspF: No. Dogs > Positive Threshold (# dogs > 1500): 8 dogs/group
Experimental: (§1) Thirty-two (18 male and 14 female) beagle dogs were sero-negative for Borrelia burgdorferi, not vaccinated with any Borrelia spp vaccines, and acclimated at the study facility for seven days. The study was conducted under National Research Council guidelines (1996). […] Field-caught Ixodes from the northeast USA were placed on the dogs without containment chambers for 10 days; after ticks fed to repletion, dogs were treated with two applications of an approved topical acaricide with a 30-day interval between applications.
Forty days post-challenge, and prior to antibiotic treatments, blood was collected from each dog as were two skin biopsy punch samples near tick attachment sites. Blood was collected approximately monthly post-treatment. Skin biopsies were taken near the tick attachment site on Days 48/49, 118, 146, 180, and 315. Serum antibodies to Borrelia were assayed using the IDEXX SNAP-4Dx and QC6 ELISA. In cooperation with Cornell University, serum samples were analyzed using fluorescent-bead-based multiplex assays detecting antibodies against B. burgdorferi outer surface proteins OspA, OspC, and OspF. […] The skin biopsies were collected for a polymerase chain reaction (PCR; FlaB) assay and cultured for spirochete detection. At the end of the study, blood and skin biopsies were collected and synovial tissue from the joints were harvested at necropsy.
(§2) On Day 75 and Day 89 Convenia was administered to the eight dogs in T04 (8 mg/kg bodyweight; subcutaneous injection). The other treated groups received their respective regimens daily and orally for 30 days from Days 75 to 104. […] Dogs in T01 served as infected, untreated, controls.

B. burgdorferi [2] = assay: Study B: microscopic examination of joints and skin at necropsy; settings: for Number of Joints with Changes as Described for Lyme disease: N = 8
Experimental: as §1
(§3) Forty days post-challenge, and prior to antibiotic treatments, blood was collected from each dog as were two skin biopsy punch samples near tick attachment sites. Blood was collected approximately monthly post-treatment. Skin biopsies were taken near the tick attachment site on Days 48/49, 118, 146, 180, and 315. Serum antibodies to Borrelia were assayed using the IDEXX SNAP-4Dx and QC6 ELISA. In cooperation with Cornell University, serum samples were analyzed using fluorescent-bead-based multiplex assays detecting antibodies against B. burgdorferi outer surface proteins OspA, OspC, and OspF. Data were expressed as median fluorescent intensities (MFI), and shown to be specific and sensitive to provide interpretative guidelines regarding infection. The skin biopsies were collected for a polymerase chain reaction (PCR; FlaB) assay and cultured for spirochete detection. At the end of the study, blood and skin biopsies were collected and synovial tissue from the joints were harvested at necropsy.
as §2, with “controls. Inter-treatment comparisons to evaluate antibiotic efficacy included clinical signs, serology, culture results and pathology.” for “controls.”
At necropsy ten joints were harvested per each dog, formalin-fixed, stained and examined microscopically. Joints included the carpus, elbow, shoulder, stifle and tarsus on both the right and left limbs. Further, a section of skin near tick attachment sites was evaluated from each dog. There were two dogs in the Convenia group (25%) with tissues showing changes as described for Lyme disease, compared to seven controls (87.5%) and three (37.5%) to four (50.0%) dogs in the other antibiotic-treated groups (Table 7). […] The Convenia group had the lowest incidence of joint changes with six affected of 80.

B. burgdorferi [3] = assay: Study B: SNAP-4Dx ELISA in tick-infected dogs; settings: N = 8/group
Description: (§4) Three outer surface proteins (Osp) on B. burgdorferi are important for diagnosis and prevention, and are expressed by the organism in response to its local environment. […] OspF is another surface protein that is generally observed in late-stage disease. The C in […] refers to a 25-amino acid, C6 peptide in the sixth invariable region of an outer membrane lipoprotein (VIsE). Antibody against C6 is highly accurate as a serologic diagnosis of Lyme disease independent of a subject's (e.g., canine) vaccination status. Further, the generation of C6 antibodies implies an active infection with viable spirochetes. Serological methods for detecting B. burgdorfer/Lyme disease were conducted using the IDEXX qualitative SNAP-4Dx ELISA and the Quantitative C6 (Quant C6 or QC6) diagnostic kits, which are enzyme linked immunosorbent assays against the previously described 25-amino-acid C6 peptide. QC6 ELISA data, units/mL, are useful for guidance in initiating and evaluating response to therapy (See Levy S A, O'Connor T P, Hanscom J L, Shields P, et al. Quantitative measurement of a C6 antibody following antibiotic treatment of Borrelia burgdorferi antibody-positive, nonclinical dogs. Clin Vacc Immunol 2008; 15(1):115-119 and Littman M P, Goldstein R E, Labato M A, et al. ACVIM Small Animal Concensus Statement on Lyme Disease in Dogs: Diagnosis, Treatment and Prevention. J Vet Intern Med 2006; 20: 422-434).
as §1, §3
as §2, with “controls. Inter-treatment comparisons to evaluate antibiotic efficacy included clinical signs, serology, culture results and pathology.” for “controls.”

B. burgdorferi [4] = assay: Study B: QC6 ELISA in tick-infected dogs; settings: 8 dogs/group
Description: as §4, §1, §3
as §2, with “controls. Inter-treatment comparisons to evaluate antibiotic efficacy included clinical signs, serology, culture results and pathology.” for “controls.”

[5] = joints, skin, 8 dogs/group, necropsy

## C[C@H]1c2cccc(O)c2C(=O)C2=C(O)[C@]3(O)C(=O)C(C(N)=O)=C(O)[C@@H](N(C)C)[C@@H]3[C@@H](O)[C@@H]21 [doxycycline]
[1]; Day 48 (pre-treatment)
  Multiplex Assay OspF: MFI Mean: 943.38 MFI
  Multiplex Assay OspF: No. Dogs > Positive Threshold (# dogs > 1500): 1
[1]; Day 111
  Multiplex Assay OspF: MFI Mean: 1174.38 MFI
  Multiplex Assay OspF: No. Dogs > Positive Threshold (# dogs > 1500): 1
[1]; Day 145
  Multiplex Assay OspF: MFI Mean: 490.63 MFI
  Multiplex Assay OspF: No. Dogs > Positive Threshold (# dogs > 1500): 0
[1]; Day 179
  Multiplex Assay OspF: MFI Mean: 395.88 MFI
  Multiplex Assay OspF: No. Dogs > Positive Threshold (# dogs > 1500): 0
[1]; Day 221
  Multiplex Assay OspF: MFI Mean: 334.75 MFI
  Multiplex Assay OspF: No. Dogs > Positive Threshold (# dogs > 1500): 0
[1]; Day 251
  Multiplex Assay OspF: MFI Mean: 340.88 MFI
  Multiplex Assay OspF: No. Dogs > Positive Threshold (# dogs > 1500): 0
[1]; Day 281
  Multiplex Assay OspF: MFI Mean: 343.63 MFI
  Multiplex Assay OspF: No. Dogs > Positive Threshold (# dogs > 1500): 0
[1]; Day 314
  Multiplex Assay OspF: MFI Mean: 353.25 MFI
  Multiplex Assay OspF: No. Dogs > Positive Threshold (# dogs > 1500): 0
[1]; Day −15 (pre-infection)
  Multiplex Assay OspF: MFI Mean: 113.50 MFI
  Multiplex Assay OspF: No. Dogs > Positive Threshold (# dogs > 1500): 0
B. burgdorferi [2]; 80 total/group
  Number of Joints with Changes as Described for Lyme disease, Cumulative: 11
B. burgdorferi [2]; Carpus L
  Number of Joints with Changes as Described for Lyme disease: 1
B. burgdorferi [2]; Carpus R
  Number of Joints with Changes as Described for Lyme disease: 2
B. burgdorferi [2]; Elbow L
  Number of Joints with Changes as Described for Lyme disease: 1
B. burgdorferi [2]; Elbow R
  Number of Joints with Changes as Described for Lyme disease: 1
B. burgdorferi [2]; Shoulder L
  Number of Joints with Changes as Described for Lyme disease: 1
B. burgdorferi [2]; Shoulder R
  Number of Joints with Changes as Described for Lyme disease: 0
B. burgdorferi [2]; Stifle L
  Number of Joints with Changes as Described for Lyme disease: 1
B. burgdorferi [2]; Stifle R
  Number of Joints with Changes as Described for Lyme disease: 2
B. burgdorferi [2]; Tarsus L
  Number of Joints with Changes as Described for Lyme disease: 2
B. burgdorferi [2]; Tarsus R
  Number of Joints with Changes as Described for Lyme disease: 0
B. burgdorferi [2]; [5]
  No Tissue Changes, # Dogs: 5
  No Tissue Changes, %: 62.5%
  Tissue Changes Described for Lyme Disease, # Dogs: 3
  Tissue Changes Described for Lyme Disease, %: 37.5%
B. burgdorferi [3]; Day 48 (pre-treatment; antibiotics from Day 75)
  SNAP-4Dx Positives, Number of Dogs: 6
B. burgdorferi [3]; Day 111
  SNAP-4Dx Positives, Number of Dogs: 7
B. burgdorferi [3]; Day 145
  SNAP-4Dx Positives, Number of Dogs: 6
B. burgdorferi [3]; Day 179
  SNAP-4Dx Positives, Number of Dogs: 1
B. burgdorferi [3]; Day 221
  SNAP-4Dx Positives, Number of Dogs: 0
B. burgdorferi [3]; Day 251
  SNAP-4Dx Positives, Number of Dogs: 0
B. burgdorferi [3]; Day 281
  SNAP-4Dx Positives, Number of Dogs: 0
B. burgdorferi [3]; Day 315
  SNAP-4Dx Positives, Number of Dogs: 0
B. burgdorferi [3]; Day −15 (pre-infection)
  SNAP-4Dx Positives, Number of Dogs: 0
B. burgdorferi [4]; Day 48 (pre-treatment)
  Dogs Sero-converted to B. burgdorferi per QC6 ELISA (≧30 U/mL), (%): 75.0%
  Number of Dogs Sero-converted to B. burgdorferi per QC6 ELISA (≧30 U/mL), No.: 6
B. burgdorferi [4]; Day 111
  Dogs Sero-converted to B. burgdorferi per QC6 ELISA (≧30 U/mL), (%): 62.5%
  Number of Dogs Sero-converted to B. burgdorferi per QC6 ELISA (≧30 U/mL), No.: 5
B. burgdorferi [4]; Day 145
  Dogs Sero-converted to B. burgdorferi per QC6 ELISA (≧30 U/mL), (%): 0.0%
  Number of Dogs Sero-converted to B. burgdorferi per QC6 ELISA (≧30 U/mL), No.: 0
B. burgdorferi [4]; Day 179
  Dogs Sero-converted to B. burgdorferi per QC6 ELISA (≧30 U/mL), (%): 0.0%
  Number of Dogs Sero-converted to B. burgdorferi per QC6 ELISA (≧30 U/mL), No.: 0
B. burgdorferi [4]; Day 221
  Dogs Sero-converted to B. burgdorferi per QC6 ELISA (≧30 U/mL), (%): 0.0%
  Number of Dogs Sero-converted to B. burgdorferi per QC6 ELISA (≧30 U/mL), No.: 0
B. burgdorferi [4]; Day 251
  Dogs Sero-converted to B. burgdorferi per QC6 ELISA (≧30 U/mL), (%): 0.0%
  Number of Dogs Sero-converted to B. burgdorferi per QC6 ELISA (≧30 U/mL), No.: 0
B. burgdorferi [4]; Day 281
  Dogs Sero-converted to B. burgdorferi per QC6 ELISA (≧30 U/mL), (%): 0.0%
  Number of Dogs Sero-converted to B. burgdorferi per QC6 ELISA (≧30 U/mL), No.: 0
B. burgdorferi [4]; Day 314
  Dogs Sero-converted to B. burgdorferi per QC6 ELISA (≧30 U/mL), (%): 0.0%
  Number of Dogs Sero-converted to B. burgdorferi per QC6 ELISA (≧30 U/mL), No.: 0

Source: US9265771B2, “Method for treating Lyme disease” (Zoetis Services LLC, priority 2012, dated 2016)
